Data on four compounds can be found in patent publication US20200129509A1, “DOSING REGIMEN” (Cyclacel Limited, priority 2018, published 2020).

The test system of series [1] is AML cell lines. The series can be described thus: Combination of CNDAC with hypomethylating agents in AML cell lines. It is filed as cell-based. Particulars: more apparent if cells are treated with hypomethylating agents first. Here is the method: Previous studies by the applicant have shown that in AML cell lines, the active metabolite of sapacitabine, CNDAC, is synergistic with hypomethylating agents and the synergy is more apparent if cells are treated with hypomethylating agents first. The present invention relates to the identification of new and previously undefined subgroups of AML patients for which treatment with an alternating regimen of sapacitabine and decitabine is particularly effective.

The subject of series [2] is AML patients.
Excerpt: For 482 patients randomized to receive decitabine/sapacitabine (n=241) vs. decitabine only (n=241), randomization was stratified by the presence of antecedent MDS or MPN, peripheral white blood cell count (WBC <10,000 vs. ≥10,000) and bone marrow blast percentage (≥50% vs. <50%).
In series [3] the test system is colon cancer. To be noted: model of colon cancer; cited from earlier work.
Series [4] deals with patients with a variety of cancers. To be noted: phase I, humans; cited from earlier work.
For series [5], the system named is cell line that is resistant to cytarabine. To be noted: cited from earlier work.
Setting [6] is: Antecedent MDS/MPN No and WBC ≥10,000.
The mark [7] stands for this setting: Antecedent MDS/MPN Yes and WBC <10,000.
The mark [8] stands for this setting: SWOG Not unfavourable and WBC <10,000.
[9] abbreviates: SWOG Unfavourable and WBC ≥10,000.
Where [10] appears, read: all randomized patients (n=241 per arm).

SMILES strings stand for the structures. Like-named read-outs stand apart in the source and are kept apart here.

Regarding `N#C[C@H]1[C@H](O)[C@@H](CO)O[C@H]1n1ccc(N)nc1=O` [CNDAC, 2′-C-cyano-2′-deoxy-1-β-D-arabino-pentofuranosyl cytosine], the “interaction with hypomethylating agents” value in series [1] is on record as “synergistic”.
In the case of `Nc1ncn([C@H]2C[C@H](O)[C@@H](CO)O2)c(=O)n1` [Decitabine, 4-amino-1-(2-deoxy-β-D-erythro-pentofuranosyl)-1,3,5-triazin-2(1H)-one], the 1-year survival in series [2] (setting [6]) stood at 36.7%; in series [2] (setting [7]) it was 27.5%; in series [2] (Antecedent MDS/MPN: No), 35.5%; in series [2] (Antecedent MDS/MPN: Yes), 32.9%; in series [2] (setting [8]), 31.8%; in series [2] (setting [9]), 30.0%. In addition, the 1-year survival in series [2] (SWOG category Not Unfavourable) worked out at 35.9%; in series [2] (SWOG category Unfavourable), 33.0%; in series [2] (patients with <10,000 WBC), 32.9%; in series [2] (patients with ≥10,000 WBC), 38.5%. For the same compound, the CR rate was 18.4% in series [2] (setting [6]); 2.5% in series [2] (setting [7]); 12.9% in series [2] (Antecedent MDS/MPN: No); 5.7% in series [2] (Antecedent MDS/MPN: Yes); 5.7% in series [2] (setting [8]); 0% in series [2] (setting [9]). Besides, the CR rate in series [2] (SWOG category Not Unfavourable) was 11.6%; in series [2] (SWOG category Unfavourable), 9.6%; in series [2] (patients with <10,000 WBC), 8.6%; in series [2] (patients with ≥10,000 WBC), 15.2%. Moreover, the Median overall survival is on record as 5.5 months in series [2] (setting [6]); 4.9 months in series [2] (setting [7]); 6.7 months in series [2] (Antecedent MDS/MPN: No); 5.0 months in series [2] (Antecedent MDS/MPN: Yes); 5.6 months in series [2] (setting [8]); 3.0 months in series [2] (setting [9]). Further, the Median overall survival was 5.7 months in series [2] (SWOG category Not Unfavourable); 5.7 months in series [2] (SWOG category Unfavourable); 5.7 months in series [2] (setting [10]); 5.8 months in series [2] (patients with <10,000 WBC); 5.5 months in series [2] (patients with ≥10,000 WBC). Also, the CR median duration in series [2] (Antecedent MDS/MPN: No) is recorded as 10.4 months; in series [2] (Antecedent MDS/MPN: Yes), 7.1 months; in series [2] (patients with <10,000 WBC), 10.4 months; in series [2] (patients with ≥10,000 WBC), 10.1 months. Further, in series [2] (aged 80 and over, <10,000 WBC), the “Patients aged 80 and over, median overall survival” value turned out to be 4.2 months. Further, the “patients achieved CR” value in series [2] (setting [10]) is recorded as 10.8%.
On to `CCCCCCCCCCCCCCCC(=O)Nc1ccn([C@@H]2O[C@H](CO)[C@@H](O)[C@@H]2C#N)c(=O)n1` [Sapacitabine, 1-(2-C-cyano-2-deoxy-β-D-arabino-pentofuranosyl)-N^4-palmitoyl cytosine], for which, in series [3], the anticancer activity result was “strong anticancer activity”; the “increasing survival and preventing spread of colon cancer metastases to the liver, compared with gemcitabine or 5-FU” value was “superior to either gemcitabine or 5-FU”. Moreover, in series [4], the dose-limiting toxicity result is “myelosuppression” and the tolerability result is given as “well tolerated”.
For `Nc1ccn([C@@H]2O[C@H](CO)[C@@H](O)[C@@H]2O)c(=O)n1` [cytarabine], the IC50 (commonly the midpoint of a concentration-inhibition curve) was 0.55 µM in series [5] (after 5-azacitidine (dCK upregulation)) and 12.5 µM in series [5] (before 5-azacitidine).
